# Experimental data published in ChEMBL document CHEMBL4651402, “Screening of ~5500 FDA-approved drugs and clinical candidates for anti-SARS-CoV-2 activity” (2021).
# Peptide text beside a SMILES is read from it.
# System: SARS-CoV-2
# Test: microbe, parasite or virus in culture
# Conditions: Severe acute respiratory syndrome coronavirus 2, Vero C1008, 48 h
SMILES,IC50,IC50 (read-out: pIC50 (converted))
CC(=O)N(CC(O)CO)c1c(I)c(C(=O)NCC(O)CO)c(I)c(C(=O)NCC(O)CO)c1I (stereo unspecified) [IOHEXOL],> 20 µM,> 20 µM
CCC(Cc1c(I)cc(I)c(N)c1I)C(=O)O (stereo unspecified) [IOPANOIC ACID],> 20 µM,> 20 µM
COCC(=O)Nc1c(I)c(C(=O)NCC(O)CO)c(I)c(C(=O)N(C)CC(O)CO)c1I (stereo unspecified) [IOPROMIDE],> 20 µM,> 20 µM
O=C(COCCOCCOCC(=O)Nc1c(I)cc(I)c(C(=O)O)c1I)Nc1c(I)cc(I)c(C(=O)O)c1I [IOTROXIC ACID],> 20 µM,> 20 µM
O=C(NCC(O)CO)c1c(I)c(C(=O)NCC(O)CO)c(I)c(N(CCO)C(=O)CO)c1I (stereo unspecified) [IOVERSOL],> 20 µM,> 20 µM
CNC(=O)c1c(I)c(C(=O)NCC(=O)Nc2c(I)c(C(=O)O)c(I)c(C(=O)NCCO)c2I)c(I)c(N(C)C(C)=O)c1I [IOXAGLIC ACID],> 20 µM,> 20 µM
CC(C)NC[C@@H](C(=O)N1CCN(c2ncnc3c2[C@H](C)C[C@H]3O)CC1)c1ccc(Cl)cc1 [IPATASERTIB],> 20 µM,> 20 µM
Nc1c2c(nc3c1CCC3)CCCC2 [IPIDACRINE],> 20 µM,> 20 µM
OC[C@H]1O[C@@H](c2ccc(F)c(Cc3cc4ccccc4s3)c2)[C@H](O)[C@@H](O)[C@@H]1O [IPRAGLIFLOZIN],> 20 µM,> 20 µM
CC(C)Oc1ccc2c(=O)c(-c3ccccc3)coc2c1 [IPRIFLAVONE],> 20 µM,> 20 µM
CN(C)CCCn1c2c(c3ccccc31)CCCCCC2 [IPRINDOLE],> 20 µM,> 20 µM
CC(C)CCCC(C)NC(C)C (stereo unspecified) [IPROHEPTINE],> 20 µM,> 20 µM
CC(C)NNC(=O)c1ccncc1 [IPRONIAZID],> 20 µM,> 20 µM
CC(C)c1ncc([N+](=O)[O-])n1C [IPRONIDAZOLE],> 20 µM,> 20 µM
O=C1c2ccccc2S(=O)(=O)N1CCCCN1CCN(c2ncccn2)CC1 [IPSAPIRONE],> 20 µM,> 20 µM
CCCCC1=NC2(CCCC2)C(=O)N1Cc1ccc(-c2ccccc2-c2nnn[nH]2)cc1 [IRBESARTAN],> 20 µM,> 20 µM
O=C1NCCN1CCN1CCN([C@@H]2C[C@@H](c3ccc(F)cc3)c3ccccc32)CC1 [IRINDALONE],> 20 µM,> 20 µM
Nc1nc(N)nc(-c2cc(Cl)ccc2Cl)n1 [IRSOGLADINE],> 20 µM,> 20 µM
Cc1nc2cc(C(c3ccccc3)n3ccnc3)ccc2[nH]1 (stereo unspecified) [IRTEMAZOLE],> 20 µM,> 20 µM
CC(C)NCC(O)COc1ccccc1-n1cccc1 (stereo unspecified) [ISAMOLTAN],> 20 µM,> 20 µM
Nc1nc(=O)c2sc(=O)n([C@@H]3O[C@H](CO)[C@@H](O)[C@H]3O)c2[nH]1 [ISATORIBINE],> 25.1 µM,> 25.1 µM

SMILES,IC50,IC50 (read-out: pIC50 (converted))
CC(C)Nc1ncccn1 [ISAXONINE],> 20 µM,> 20 µM
O=C(O)CCCC/C=C(/c1ccccc1)c1cccnc1 [ISBOGREL],> 20 µM,> 20 µM
COc1cc2occc2c2oc(=O)ccc12 [ISOBERGAPTENE],> 20 µM,> 20 µM
CC(C)COC(=O)c1ccc(N)cc1 [ISOBUTAMBEN],> 20 µM,> 20 µM
CC(C)Cn1c(=O)n(C)c(=O)c2nc[nH]c21 [ISOBUTYLMETHYLXANTHINE],> 20 µM,> 20 µM
CC(C)C(N)=O [ISOBUTYRAMIDE],> 20 µM,> 20 µM
Cc1cc(C(=O)NNCc2ccccc2)no1 [ISOCARBOXAZID],> 20 µM,> 20 µM
Clc1ccc(C(Cn2ccnc2)OCc2c(Cl)cccc2Cl)c(Cl)c1 (stereo unspecified) [ISOCONAZOLE],> 20 µM,> 20 µM
COc1ccc2c(c1O)-c1c(OC)c(OC)cc3c1[C@H](C2)N(C)CC3 [ISOCORYDINE],> 20 µM,> 20 µM
CC(=O)OCC(=O)[C@@]1(O)CC[C@H]2[C@@H]3CCC4=CC(=O)C=C[C@]4(C)[C@@]3(F)[C@@H](O)C[C@@]21C [ISOFLUPREDONE ACETATE],> 20 µM,> 20 µM
O=C(O)C1=CCNCC1 [ISOGUVACINE],> 20 µM,> 20 µM
C=C1CCC2C(CC2(C)C)C(=O)CCC1O (stereo unspecified) [ISOKOBUSONE],> 20 µM,> 20 µM
O=C(/C=C/c1ccc(O)cc1)c1ccc(O)cc1O [ISOLIQUIRITIGENIN],> 20 µM,> 20 µM
CCC(=O)C(c1ccccc1)(c1ccccc1)C(C)CN(C)C (stereo unspecified) [ISOMETHADONE],> 20 µM,> 20 µM
CNC(C)CCC=C(C)C (stereo unspecified) [ISOMETHEPTENE],> 20 µM,> 20 µM
NNC(=O)c1ccncc1 [ISONIAZID],> 20 µM,> 20 µM
COc1c2ccoc2c(OC)c2oc(=O)ccc12 [ISOPIMPINELLIN],> 20 µM,> 20 µM
CC(C)[N+](C)(CCC(C(N)=O)(c1ccccc1)c1ccccc1)C(C)C [ISOPROPAMIDE],> 20 µM,> 20 µM
CC(C)NCC(O)c1ccc(O)c(O)c1 (stereo unspecified) [ISOPROTERENOL],> 20 µM,> 20 µM
O=[N+]([O-])O[C@@H]1CO[C@H]2[C@@H]1OC[C@@H]2O [ISOSORBIDE MONONITRATE],> 20 µM,> 20 µM
O[C@@H]1CO[C@H]2[C@@H]1OC[C@@H]2O [ISOSORBIDE],> 20 µM,> 20 µM

SMILES,IC50,IC50 (read-out: pIC50 (converted))
CC(=O)N[C@@H](CC(=O)O)C(=O)N[C@@H](CCC(=O)O)C(=O)O [ISOSPAGLUMIC ACID] (Ac-Asp-Glu-OH),> 20 µM,> 20 µM
Cc1ccnc2c1CCCC2C(N)=S (stereo unspecified) [ISOTIQUIMIDE],> 20 µM,> 20 µM
CC(C)CC(N)=O [ISOVALERAMIDE],> 20 µM,> 20 µM
Cc1cc(NC(=O)C2=C(O)c3ccccc3S(=O)(=O)N2C)no1 [ISOXICAM],> 20 µM,> 20 µM
CC(COc1ccccc1)NC(C)C(O)c1ccc(O)cc1 (stereo unspecified) [ISOXSUPRINE],> 20 µM,> 20 µM
Cc1ccc(C(=O)N(CCCN)[C@@H](c2nc3cc(Cl)ccc3c(=O)n2Cc2ccccc2)C(C)C)cc1 [ISPINESIB],> 20 µM,> 20 µM
CN[C@@H](C)C/C=C/c1cncc(OC(C)C)c1 [ISPRONICLINE],> 20 µM,> 20 µM
COC(=O)C1=C(C)NC(C)=C(C(=O)OC(C)C)C1c1cccc2nonc12 (stereo unspecified) [ISRADIPINE],> 20 µM,> 20 µM
C[C@]12CCC(=NOCCN)C[C@@H]1C(=O)C[C@@H]1[C@@H]2CC[C@]2(C)C(=O)CC[C@@H]12 [ISTAROXIME],> 20 µM,> 20 µM
CCn1c(=O)c2c(nc(/C=C/c3ccc(OC)c(OC)c3)n2C)n(CC)c1=O [ISTRADEFYLLINE],> 20 µM,> 20 µM
N#CCC1(n2cc(-c3ncnc4[nH]ccc34)cn2)CN(C2CCN(C(=O)c3ccnc(C(F)(F)F)c3F)CC2)C1 [ITACITINIB],> 20 µM,> 20 µM
COc1ccc(-c2nc(C(F)(F)F)sc2-c2ccc(OC)cc2)cc1 [ITAZIGREL],> 20 µM,> 20 µM
COc1ccc(C(=O)NCc2ccc(OCCN(C)C)cc2)cc1OC [ITOPRIDE],> 20 µM,> 20 µM
COc1cc2c(cc1OC)CC(=O)N(CCCN(C)C[C@H]1Cc3cc(OC)c(OC)cc31)CC2 [IVABRADINE],> 20 µM,> 20 µM
COc1ccc(-c2c(C#N)c(C(=O)NN3CCCCC3)nn2-c2ccc(Cl)cc2Cl)cc1 [JHU-75528],> 20 µM,> 20 µM
C[N+](C)(Cc1ccc(NC(=O)c2ccc(Cl)c(Cl)c2)cc1)C1CCOCC1 [JNJ-17166864 CATION],> 20 µM,> 20 µM
NS(=O)(=O)NC[C@H]1COc2cc(Cl)ccc2O1 [JNJ-26489112],> 20 µM,> 20 µM
Fc1ccc(CN2CCC(Nc3ccc(C(F)(F)F)nn3)CC2)cc1F [JNJ-37822681],> 20 µM,> 20 µM
O=C(c1ccc(Oc2ccc(F)cc2)nc1)N1CCCN(C2CCC2)CC1 [JNJ-39220675],> 20 µM,> 20 µM
CN(C)C(=O)CCn1nc(Nc2ccc3c(c2)OC(F)(F)O3)nc1-c1ccncc1 [JNJ-39393406],> 20 µM,> 20 µM
CCCCn1ccc(N2CCC(c3ccccc3)CC2)c(Cl)c1=O [JNJ-40411813],> 20 µM,> 20 µM
